Measured values as given in PMC9600963, “Cation ATPase (ATP4) Orthologue Replacement in the Malaria Parasite Plasmodium knowlesi Reveals Species-Specific Responses to ATP4-Targeting Drugs” (mBio, 2022).

What was measured:
Assay in all cases: growth inhibition of orthologue replacement parasite line, SYBR green I (whole-cell read-out)
Assay type in all cases: cell-based
Conditions in all cases: intact P. knowlesi parasites in erythrocytes, 27 h (one life cycle); not a direct enzyme assay
[1] = target: T1, PocATP4 (PocATP4^OR line) (Plasmodium ovale, UniProt A0A1D3TM67)
T1 construct: gene ATP4; full-length recodonized coding region replacing pkatp4 in P. knowlesi A1-H.1; untagged; intact parasites
T1 sequence (A0A1D3TM67 1-1433): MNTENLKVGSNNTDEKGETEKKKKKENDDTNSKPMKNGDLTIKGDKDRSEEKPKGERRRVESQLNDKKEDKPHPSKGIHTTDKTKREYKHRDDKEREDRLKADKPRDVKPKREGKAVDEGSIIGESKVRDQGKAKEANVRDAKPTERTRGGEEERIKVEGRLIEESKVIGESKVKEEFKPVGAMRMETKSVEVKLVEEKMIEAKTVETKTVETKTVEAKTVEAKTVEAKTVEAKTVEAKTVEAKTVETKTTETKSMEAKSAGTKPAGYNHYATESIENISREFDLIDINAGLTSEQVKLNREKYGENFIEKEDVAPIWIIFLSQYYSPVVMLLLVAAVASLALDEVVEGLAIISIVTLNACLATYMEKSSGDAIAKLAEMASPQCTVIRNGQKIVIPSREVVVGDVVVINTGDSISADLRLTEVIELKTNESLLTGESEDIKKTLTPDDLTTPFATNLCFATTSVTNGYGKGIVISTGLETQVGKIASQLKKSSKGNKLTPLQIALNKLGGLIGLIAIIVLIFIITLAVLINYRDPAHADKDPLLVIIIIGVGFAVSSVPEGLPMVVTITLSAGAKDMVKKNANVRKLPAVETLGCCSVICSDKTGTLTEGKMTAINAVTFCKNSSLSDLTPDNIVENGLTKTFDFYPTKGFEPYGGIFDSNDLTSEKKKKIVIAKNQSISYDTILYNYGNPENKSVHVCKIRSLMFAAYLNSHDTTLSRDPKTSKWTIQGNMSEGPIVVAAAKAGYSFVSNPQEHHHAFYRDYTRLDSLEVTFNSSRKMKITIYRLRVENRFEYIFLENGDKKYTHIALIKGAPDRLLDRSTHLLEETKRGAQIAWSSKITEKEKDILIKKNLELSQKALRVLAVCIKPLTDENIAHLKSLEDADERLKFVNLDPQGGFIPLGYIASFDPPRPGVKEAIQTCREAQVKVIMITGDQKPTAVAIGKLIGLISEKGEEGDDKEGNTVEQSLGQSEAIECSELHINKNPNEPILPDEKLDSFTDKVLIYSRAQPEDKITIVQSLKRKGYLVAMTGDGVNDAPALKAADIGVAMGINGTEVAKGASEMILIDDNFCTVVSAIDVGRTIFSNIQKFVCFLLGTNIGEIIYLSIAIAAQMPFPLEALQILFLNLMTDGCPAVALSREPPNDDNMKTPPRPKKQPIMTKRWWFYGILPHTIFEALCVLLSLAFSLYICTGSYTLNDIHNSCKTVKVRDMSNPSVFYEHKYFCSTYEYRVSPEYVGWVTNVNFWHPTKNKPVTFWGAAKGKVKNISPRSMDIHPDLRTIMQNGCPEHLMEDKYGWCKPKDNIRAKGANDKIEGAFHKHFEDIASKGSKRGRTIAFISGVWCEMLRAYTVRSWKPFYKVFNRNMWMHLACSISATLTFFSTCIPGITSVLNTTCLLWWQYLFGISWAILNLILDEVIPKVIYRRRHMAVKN
Text: growth inhibition of orthologue replacement parasite line, SYBR green I (whole-cell read-out) on PocATP4 (PocATP4^OR line)

[2] = target: T2, PkATP4 (PkATP4^OR line) (Plasmodium knowlesi, UniProt A0A384LKC1)
T2 construct: gene PKNH_1312000; untagged; intact parasites
T2 sequence (A0A384LKC1 1-1293): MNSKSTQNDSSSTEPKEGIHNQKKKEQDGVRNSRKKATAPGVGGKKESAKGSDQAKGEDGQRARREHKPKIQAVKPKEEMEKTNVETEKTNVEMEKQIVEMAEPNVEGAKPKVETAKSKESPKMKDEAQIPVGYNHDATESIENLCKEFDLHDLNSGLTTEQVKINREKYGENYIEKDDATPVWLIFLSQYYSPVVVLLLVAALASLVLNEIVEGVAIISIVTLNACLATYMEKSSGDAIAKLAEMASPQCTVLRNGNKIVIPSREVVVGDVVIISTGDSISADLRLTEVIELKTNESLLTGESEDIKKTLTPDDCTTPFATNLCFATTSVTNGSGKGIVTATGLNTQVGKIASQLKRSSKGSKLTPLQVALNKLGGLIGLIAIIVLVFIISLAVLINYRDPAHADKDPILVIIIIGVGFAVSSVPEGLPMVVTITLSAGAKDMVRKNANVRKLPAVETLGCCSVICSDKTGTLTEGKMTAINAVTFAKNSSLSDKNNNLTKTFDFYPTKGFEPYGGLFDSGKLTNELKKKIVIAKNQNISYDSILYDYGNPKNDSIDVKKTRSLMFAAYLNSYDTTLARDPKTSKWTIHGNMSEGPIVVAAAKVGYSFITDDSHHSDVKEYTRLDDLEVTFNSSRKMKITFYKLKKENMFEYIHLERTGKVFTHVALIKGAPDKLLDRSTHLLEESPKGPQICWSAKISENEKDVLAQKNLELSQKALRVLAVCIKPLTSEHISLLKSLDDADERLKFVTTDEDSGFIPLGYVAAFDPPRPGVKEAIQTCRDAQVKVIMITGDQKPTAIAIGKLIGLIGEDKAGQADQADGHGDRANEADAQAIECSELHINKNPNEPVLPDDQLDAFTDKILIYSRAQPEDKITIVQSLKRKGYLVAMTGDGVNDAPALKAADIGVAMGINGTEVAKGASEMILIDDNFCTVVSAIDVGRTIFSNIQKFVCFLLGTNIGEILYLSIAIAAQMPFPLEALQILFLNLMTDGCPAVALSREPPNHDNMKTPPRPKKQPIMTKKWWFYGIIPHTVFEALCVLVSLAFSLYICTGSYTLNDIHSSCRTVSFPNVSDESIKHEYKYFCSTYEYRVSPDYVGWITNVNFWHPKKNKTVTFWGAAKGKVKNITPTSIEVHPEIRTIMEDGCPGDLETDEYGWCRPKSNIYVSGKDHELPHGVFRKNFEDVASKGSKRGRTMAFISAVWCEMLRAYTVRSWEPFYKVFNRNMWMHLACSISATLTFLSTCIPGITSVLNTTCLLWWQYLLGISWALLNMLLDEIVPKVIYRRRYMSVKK
Text: growth inhibition of orthologue replacement parasite line, SYBR green I (whole-cell read-out) on PkATP4 (PkATP4^OR line)

[3] = target: T3, PvATP4 (PvATP4^OR line) (Plasmodium vivax, UniProt A5K0L8)
T3 construct: gene PVX_084625; full-length recodonized coding region replacing pkatp4 in P. knowlesi A1-H.1; untagged; intact parasites
Text: growth inhibition of orthologue replacement parasite line, SYBR green I (whole-cell read-out) on PvATP4 (PvATP4^OR line)

[4] = target: T4, PfATP4 (PfATP4^OR line) (Plasmodium falciparum, UniProt A0A143ZZK9)
T4 construct: gene ATP4; full-length recodonized coding region replacing pkatp4 in P. knowlesi A1-H.1; untagged; intact parasites
T4 sequence (A0A143ZZK9 whole entry): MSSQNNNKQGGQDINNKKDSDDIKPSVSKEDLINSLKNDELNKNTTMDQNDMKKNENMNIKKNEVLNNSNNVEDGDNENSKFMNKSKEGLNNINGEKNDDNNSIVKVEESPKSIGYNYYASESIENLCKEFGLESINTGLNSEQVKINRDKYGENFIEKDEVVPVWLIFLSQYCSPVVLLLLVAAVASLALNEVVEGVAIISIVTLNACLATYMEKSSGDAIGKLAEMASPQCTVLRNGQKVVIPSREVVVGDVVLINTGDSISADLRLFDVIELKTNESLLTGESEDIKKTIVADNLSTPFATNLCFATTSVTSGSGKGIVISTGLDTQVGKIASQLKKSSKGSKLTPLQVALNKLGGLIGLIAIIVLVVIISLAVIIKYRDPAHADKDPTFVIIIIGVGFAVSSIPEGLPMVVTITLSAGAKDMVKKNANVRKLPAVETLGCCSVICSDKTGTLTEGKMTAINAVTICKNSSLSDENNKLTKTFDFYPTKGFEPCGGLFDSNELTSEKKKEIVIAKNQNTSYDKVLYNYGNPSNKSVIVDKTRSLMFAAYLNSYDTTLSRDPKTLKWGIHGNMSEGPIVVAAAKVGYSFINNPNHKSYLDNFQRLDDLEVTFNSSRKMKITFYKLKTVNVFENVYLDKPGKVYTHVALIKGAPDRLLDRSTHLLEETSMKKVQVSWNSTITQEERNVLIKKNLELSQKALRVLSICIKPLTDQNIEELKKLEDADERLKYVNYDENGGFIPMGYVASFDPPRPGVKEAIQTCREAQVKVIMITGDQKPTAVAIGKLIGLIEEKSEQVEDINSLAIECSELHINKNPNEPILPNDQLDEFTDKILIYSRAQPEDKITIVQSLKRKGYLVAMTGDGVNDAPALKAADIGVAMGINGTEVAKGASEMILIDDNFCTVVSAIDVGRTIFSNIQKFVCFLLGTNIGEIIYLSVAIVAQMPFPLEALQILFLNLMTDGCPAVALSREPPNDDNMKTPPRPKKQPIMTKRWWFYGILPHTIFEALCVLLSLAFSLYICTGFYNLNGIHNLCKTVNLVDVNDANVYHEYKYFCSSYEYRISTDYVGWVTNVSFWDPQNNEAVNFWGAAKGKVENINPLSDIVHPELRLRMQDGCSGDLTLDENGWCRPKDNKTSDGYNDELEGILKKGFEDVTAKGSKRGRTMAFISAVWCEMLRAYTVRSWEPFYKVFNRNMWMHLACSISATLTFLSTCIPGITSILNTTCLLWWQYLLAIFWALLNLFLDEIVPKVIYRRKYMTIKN
Text: growth inhibition of orthologue replacement parasite line, SYBR green I (whole-cell read-out) on PfATP4 (PfATP4^OR line)

[5] = target: T5, PmATP4 (PmATP4^OR line) (Plasmodium malariae, UniProt A0A1A8WBD6)
T5 construct: gene ATP4; full-length recodonized coding region replacing pkatp4 in P. knowlesi A1-H.1; untagged; intact parasites
T5 sequence (A0A1A8WBD6 1-1380): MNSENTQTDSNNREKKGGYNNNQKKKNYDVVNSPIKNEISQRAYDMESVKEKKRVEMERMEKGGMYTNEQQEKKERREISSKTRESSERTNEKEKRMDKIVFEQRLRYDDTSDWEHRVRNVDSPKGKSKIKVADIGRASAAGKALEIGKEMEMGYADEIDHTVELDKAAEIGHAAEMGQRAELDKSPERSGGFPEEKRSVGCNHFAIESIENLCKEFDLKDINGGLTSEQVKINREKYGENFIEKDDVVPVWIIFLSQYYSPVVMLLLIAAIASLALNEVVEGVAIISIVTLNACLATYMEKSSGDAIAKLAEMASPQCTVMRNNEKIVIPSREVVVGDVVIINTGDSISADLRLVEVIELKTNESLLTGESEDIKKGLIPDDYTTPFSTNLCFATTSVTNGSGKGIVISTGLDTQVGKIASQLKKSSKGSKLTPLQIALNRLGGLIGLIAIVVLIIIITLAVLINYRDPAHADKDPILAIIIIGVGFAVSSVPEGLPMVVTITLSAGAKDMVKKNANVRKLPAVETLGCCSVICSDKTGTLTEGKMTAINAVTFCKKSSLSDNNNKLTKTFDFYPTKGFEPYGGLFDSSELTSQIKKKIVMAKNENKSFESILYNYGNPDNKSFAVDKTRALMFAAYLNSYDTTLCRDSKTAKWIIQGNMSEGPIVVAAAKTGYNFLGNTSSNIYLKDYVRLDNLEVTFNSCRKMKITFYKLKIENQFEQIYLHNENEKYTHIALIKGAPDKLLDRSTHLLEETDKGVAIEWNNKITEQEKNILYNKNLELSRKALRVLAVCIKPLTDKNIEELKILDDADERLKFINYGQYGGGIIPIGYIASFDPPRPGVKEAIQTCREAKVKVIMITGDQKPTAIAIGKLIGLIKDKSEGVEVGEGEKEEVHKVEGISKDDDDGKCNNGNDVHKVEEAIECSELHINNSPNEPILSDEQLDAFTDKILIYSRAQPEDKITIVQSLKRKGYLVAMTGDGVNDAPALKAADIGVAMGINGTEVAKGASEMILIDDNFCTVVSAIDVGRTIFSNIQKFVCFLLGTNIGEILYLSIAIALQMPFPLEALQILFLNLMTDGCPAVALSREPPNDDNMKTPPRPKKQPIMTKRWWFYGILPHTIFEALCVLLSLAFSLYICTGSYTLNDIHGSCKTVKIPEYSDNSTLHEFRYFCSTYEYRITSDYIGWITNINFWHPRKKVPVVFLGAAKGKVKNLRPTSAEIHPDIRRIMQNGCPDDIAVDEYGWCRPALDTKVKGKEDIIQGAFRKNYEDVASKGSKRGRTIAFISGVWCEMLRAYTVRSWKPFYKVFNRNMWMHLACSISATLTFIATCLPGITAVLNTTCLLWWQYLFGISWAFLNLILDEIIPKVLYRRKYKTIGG
Text: growth inhibition of orthologue replacement parasite line, SYBR green I (whole-cell read-out) on PmATP4 (PmATP4^OR line)

Substance: PA21A092
- EC50, nM (P value) / PA21A092 [1]: 599 ± 70 nM
- EC50, nM (P value) / PA21A092 [2]: 126 ± 5.5 nM
- EC50, nM (P value) / PA21A092 [3]: 94.8 ± 14.6 nM
- EC50, nM (P value) / PA21A092 [4]: 17.8 ± 2.9 nM
- EC50, nM (P value) / PA21A092 [5]: 92.8 ± 14.7 nM
